Reference: US7367941B2, “Detection and characterization of cholinergic oscillatory control in peripheral microvasculature” (Yale University, priority 2000, dated 2008)

How the values were obtained:
Assay type in all cases: in vivo, human
[1] = test system: R-R intervals of the electrocardiogram; assay: ECG R-R interval variability (APSDR-R, time-domain indices), HR and BP during phenylephrine and added atropine; conditions: for effect on BP and HR (R-R interval): spontaneous and metronome breathing
Experimental: (§1) With IRB approval, 15 healthy nonsmoking male volunteers were instructed to refrain from caffeine and other known vasoactive compounds for at least 24 hours prior and then lie recumbent in a temperature-regulated room (70±1° F.). Surface electrodes were applied for monitoring ECG and respiration, a noninvasive BP cuff was placed over the brachial artery of one arm, and a 22 gauge intravenous catheter was placed in the opposite arm. In the first eight subjects, laser Doppler flowmetry probes (Periflux 2B, Perimed, Sweden) then were applied to the skin via double-stick tape on the forehead and on the finger contralateral to the BP cuff. In the remaining seven subjects, the sites of laser Doppler monitoring were modified and additional monitors were applied (see Example 3).
(§2) The ECG, respiration, and laser Doppler flux were recorded at 250 Hz with a microprocessor-based system which consisted of analog to digital converters, commercially available data acquisition and waveform analysis software (SnapMaster, HEM Data Corp.) and customized software for beat detection. Each R-wave was identified using the recommended combination of derivative plus threshold detection of the fiducial point of the data sampled at 250 Hz (Task Force of the European Society of Cardiology and the North American Society of Pacing and Electrophysiology: Heart rate variability. Standards of measurement, physiological interpretation, and clinical use. Circulation 1996;93:1043-1065). Ectopic beats were to be replaced with an interpolated value, but none were noted. BP was recorded at 2-5 min intervals.
(§3) Following 5 min of baseline (BASE) monitoring during spontaneous ventilation BASESPONT), each subject breathed in synchrony with an audible metronome at a rate of 12 breaths/min (BASEMETRO); each segment lasted 5 min (of which the middle 200 sec were used for subsequent analysis). Subjects then received an infusion of phenylephrine, which was titrated until there was >25% decline in finger flow for 10 min. […] Five minutes of data during this PHENYL phase were recorded during SPONT and during METRO (PHENYLSPONT and PHENYLMETRO). Atropine was then administered IV in 0.25-0.50 mg increments until HR was at least 33% above PHENYL. Measurements during this PH+ATR phase were recorded for 5 min during each of the two respiratory patterns (PH+ATRSPONT and PH+ATRMETRO). The phenylephrine then was discontinued. The values from all subjects were averaged to provide the overall means±standard error (SE) for the sampling periods that are summarized in the FIGS. 5-8.
(§4) The frequency and power of the oscillations of the R-R intervals and laser Doppler flux values (flux) were characterized by frequency-domain analysis. As described in the prior art (Task Force of the European Society of Cardiology, 1996), the “R-R tachogram” and laser Doppler signal were resampled at 5 Hz, a rate more than sufficient to enable identification of oscillatory frequencies within the frequency range of interest (according to Nyquist's theorem and recent Task Force recommendations (see Task Force of the European Society of Cardiology, 1996)). An APSD was then generated for the R-R interval [APSDR-R (msec^2/Hz vs. Hz)], for the laser Doppler signal taken at the forehead [APSDFOREHEAD FLUX (mVolt^2/Hz vs. Hz)], and for the laser Doppler signal taken at the finger [APSDFINGER (mvolt^2/Hz vs. Hz)] in each subject using a traditional (Parzan) window. For each APSD, 200 sec of data were resampled at 5 Hz, providing a spectral resolution of 0.005 Hz (5 cycles per sec/1,000 data points); the mean value of the signal was subtracted from the data to eliminate its influence on the APSD. For purposes of presentation, each pair of adjacent 0.005 Hz bins was summated to provide bins with a width of 0.01 Hz. […]

[2] = test system: forehead microvasculature; assay: Laser Doppler flowmetry of forehead flux, spectral- and time-domain analysis, during phenylephrine challenge and added atropine; conditions: for beat-to-beat % change of forehead flux: p<0.05; for flux at the forehead: mean (SE)
Experimental: as §1, §2, §3, §4

finger microvasculature = assay: Laser Doppler flowmetry of finger flux during phenylephrine infusion
Experimental: as §1, with “In the remaining seven subjects, the sites of laser Doppler monitoring were modified and additional monitors were applied (see Example 3).” left out
The ECG, respiration, and laser Doppler flux were recorded at 250 Hz with a microprocessor-based system which consisted of analog to digital converters, commercially available data acquisition and waveform analysis software (SnapMaster, HEM Data Corp.) and customized software for beat detection. […] BP was recorded at 2-5 min intervals.
Following 5 min of baseline (BASE) monitoring during spontaneous ventilation BASESPONT), each subject breathed in synchrony with an audible metronome at a rate of 12 breaths/min (BASEMETRO); each segment lasted 5 min (of which the middle 200 sec were used for subsequent analysis). […] Five minutes of data during this PHENYL phase were recorded during SPONT and during METRO (PHENYLSPONT and PHENYLMETRO). […]

[3] = test system: forehead microvasculature; assay: Laser Doppler flowmetry of forehead flux, spectral- and time-domain analysis, during phenylephrine challenge and added atropine
[4] = test system: forehead flux and R-R oscillations; assay: Cross power spectral density of forehead flux and R-R after normalization to mean; conditions: PHENYL
Experimental: FIGS. 11A-D are a graphical comparison of normalized data in the time and frequency-domains, in accordance with the present invention. The signals were normalized prior to time and frequency domain analysis, as follows: (1) LDF flow data was resampled at 5 Hz (data from FIG. 5); (2) mean flow data for the entire study segment (i.e., 5.33522) was determined; and (3) the normalized values were obtained by dividing each resampled value by the corresponding mean value for the study segment. Normalization facilitates visual inspection as well as time-domain and spectral-domain comparisons of the oscillatory signal(s) to values under different circumstances (e.g. baseline vs. challenge state) or to the values of another parameter. Although the values in FIG. 11 were normalized to the mean, it may be preferable in some settings to normalize to the median since this is less affected by outliers. […] The CPSD is calculated by determining the normalized power of a signal from the instantaneous amplitude-spectrum using the following equation: Gab=ave(SaSb*)/df where Gab=instantaneous amplitude spectral density of the sampling channels; Sa=instantaneous amplitude spectrum of channel a; Sb*=complex conjugate of Sb; df=frequency resolution. […]

## CN1[C@@H]2CC[C@H]1C[C@@H](OC(=O)C(CO)c1ccccc1)C2 (some centres unmarked) [atropine]
[1]; atropine added to phenylephrine, SPONT and METRO
  effect on power in the max bin of APSDR-R: decrease significantly below BASE values
[1]
  effect on BP and HR (R-R interval): exacerbated the increase in BP and reversed the prolongation of the R-R interval
[2]; atropine IV added to phenylephrine infusion (PH+ATR), METRO, p=NS vs BASE
  effect on maxbin power of APSDFOREHEADFLUX: reduced power in the maxbin to near-BASE
[2]; atropine added to phenylephrine
  effect on phenylephrine-induced HF forehead oscillatory signal: nearly eliminated

## CNC[C@H](O)c1cccc(O)c1 [phenylephrine]
Finger microvasculature; phenylephrine infusion
  atropine-sensitive oscillations in the finger: did not induce atropine-sensitive oscillations in the finger
Finger microvasculature; phenylephrine infusion 0.4-0.6 μg/kg/min, both METRO and SPONT, p<0.05
  Finger flux decline: approximately 50%
[1]; METRO, PHENYL, BASE 475.4 (111.7)
  power/bin for each of the 26 bins in the APSDR-R: 393.8 (100.9) msec^2/Hz
[1]; METRO, PHENYL, BASE 799.7 (138.2)%
  normalized power of the max bin (0.2 Hz) of APSDR-R: 1050.0 (205.8) %
[1]; METRO, PHENYL, BASE 4,354 (1556.0)
  power of the max bin of the RF band of APSDR-R: 4060.2 (996.2) msec^2/Hz
[1]; metronome breathing, PHENYL, BASE 4.3 (0.6)%, p=0.2
  beat-to-beat % change of R-R: 5.6 (0.7) %
[1]
  effect on BP and HR (R-R interval): increase in BP and slowing of HR
[1]; spontaneous breathing, PHENYL, BASE 3.2 (0.4)%, p=ns
  beat-to-beat % change of R-R: 3.7 (0.4) %
[2]; METRO, PHENYL, BASE 1.3(0.5), p=0.0005
  Power/bin of the APSDFOREHEADFLUX: 6.5(2.2) mvolt^2/Hz
[2]; METRO, PHENYL, BASE 4.9 (1.1)%
  beat-to-beat % change of forehead flux: 11.9 (2.3) %
[2]; METRO, PHENYL, BASE 10.2(5.5), p=0.0003
  Maxbin power of APSDFOREHEADFLUX: 101.7(39.7) mvolt^2/Hz
[2]; PHENYLMETRO
  normalized maxbin power of APSDFOREHEADFLUX, % of average power/bin at BASE: 7,304(1,630) %
[2]; PHENYLMETRO, p>0.4 vs BASE 2.1 (0.5)
  flux at the forehead: 2.3 (0.6) volts
[2]; PHENYLSPONT
  frequency of atropine-sensitive peak in APSDFOREHEADFLUX: 0.14±0.02 Hz
  normalized maxbin power of APSDFOREHEADFLUX, % of average power/bin at BASE: 8,061(4,550) %
[2]; PHENYLSPONT, p>0.3 vs BASE 2.1 (0.5)
  flux at the forehead: 1.5 (0.6) volts
[2]; SPONT, PHENYL, BASE 3.4 (0.3)%
  beat-to-beat % change of forehead flux: 10.7 (2.2) %
[2]; phenylephrine infusion, METRO (0.20 Hz breathing)
  frequency of maxbin / oscillatory peak in APSDFOREHEADFLUX: 0.14±0.02 Hz
[3]; one subject, phenylephrine infusion, continuous intra-arterial monitoring
  maxbin frequency of the APSDFOREHEAD FLUX: 0.13 Hz
[3]; two subjects, phenylephrine bolus
  frequency at which forehead oscillations increased: approximately 0.13 Hz
[4]; BASE 32.3±10.7%, p=0.004
  degree to which maxbin in IF band of CPSDFLUX&R-R reflected power in maxbin of APSDFOREHEADFLUX/mean: 7.0±1.8%
[4]; BASE 33.6±11.0%, p=0.002
  relative degree to which maxbin in IF band of APSDR-R/mean reflected power in maxbin of CPSDFLUX&R-R: 7.3±1.8%
